Measurements as given in ChEMBL document CHEMBL1201862, “PubChem BioAssay data set” (2004).
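Grown in 96-well plates, cells were treated for 48 hours with each compound at five concentrations. Insufficient inhibition: endpoint recorded as highest concentration tested. At the GI50, growth is halved.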 Activity calls are given as the source filed them. No stated cut-off is given here; in the data, active = GI50 up to about 1.1 µM and inactive = higher. Where a SMILES comes first, the peptide text is derived from it. The star is where a group is joined. Boc = CC(C)(C)OC(=O)*

How the values were obtained:
Assay in all cases: DTP human tumour cell line panel, 48 h
TK-10 = tested on: TK-10
HL-60 = tested on: HL-60
K562 = tested on: K562
NCI-H226 = tested on: NCI-H226
OVCAR-5 = tested on: OVCAR-5
NCI-H460 = tested on: NCI-H460
HCT-116 = tested on: HCT-116
MOLT-4 = tested on: MOLT-4
HT-29 = tested on: HT-29
SK-MEL-5 = tested on: SK-MEL-5
U-251 = tested on: U-251
SN12C = tested on: SN12C
CCRF-CEM = tested on: CCRF-CEM
OVCAR-8 = tested on: OVCAR-8
CAKI-1 = tested on: CAKI-1
OVCAR-4 = tested on: OVCAR-4
HOP-92 = tested on: HOP-92
MCF7 = tested on: MCF7
NCI/ADR-RES = tested on: NCI/ADR-RES
RXF 393 = tested on: RXF 393

Row | SMILES | GI50 (TK-10) | GI50 (HL-60) | GI50 (K562) | GI50 (NCI-H226) | GI50 (OVCAR-5) | GI50 (NCI-H460) | GI50 (HCT-116) | GI50 (MOLT-4) | GI50 (HT-29) | GI50 (SK-MEL-5) | GI50 (U-251) | GI50 (SN12C) | GI50 (CCRF-CEM) | GI50 (OVCAR-8) | GI50 (CAKI-1) | GI50 (OVCAR-4) | GI50 (HOP-92) | GI50 (MCF7) | GI50 (NCI/ADR-RES) | GI50 (RXF 393)
1 | NC(=O)CCC(NCc1c2ccccc2[n+]([O-])c2ccccc12)C(=O)O (stereo not drawn) | > 100 µM (inactive) | 29.3 µM (inactive) | 36.3 µM (inactive) | 60.1 µM (inactive) | > 100 µM (inactive) | > 100 µM (inactive) | 30.8 µM (inactive) | 30 µM (inactive) | > 100 µM (inactive) | 68.7 µM (inactive) | > 100 µM (inactive) | > 100 µM (inactive) | 35.6 µM (inactive) | > 100 µM (inactive) | 82.8 µM (inactive) | 40.1 µM (inactive) |  |  |  | 
2 | COC(=O)c1cccc(N[C@@H]2c3cc4c(cc3C(c3cc(OC)c(O)c(OC)c3)[C@H]3C(=O)OCC32)OCO4)c1 (stereo partly drawn) |  | 0.149 µM (active) | 0.902 µM (active) | 0.662 µM (active) | 6.67 µM (inactive) | 0.0351 µM (active) | 0.682 µM (active) | 0.0328 µM (active) | 1.69 µM (inactive) | 1.11 µM (active) | 1.05 µM (active) | 1.45 µM (inactive) | 0.248 µM (active) | 1.73 µM (inactive) | 0.321 µM (active) | 7.08 µM (inactive) | 1.06 µM (active) | 0.442 µM (active) | 0.468 µM (active) | 1.33 µM (inactive)
3 | COc1cc(O)c2c(=O)cc(C3(O)C=CC(=O)C=C3)oc2c1 | 0.0658 µM (active) | < 0.01 µM (active) | < 0.01 µM (active) | 0.394 µM (active) |  | 0.675 µM (active) | 0.29 µM (active) | 0.0815 µM (active) | < 0.01 µM (active) | 0.0321 µM (active) | < 0.0405 µM (active) | 0.135 µM (active) | < 0.01 µM (active) | 0.0448 µM (active) | < 0.0476 µM (active) | 0.393 µM (active) |  |  | 0.0588 µM (active) | 3.44 µM (inactive)
4 | c1ccc(-c2nnc(-c3nsc4ccccc34)o2)cc1 | > 100 µM (inactive) | > 100 µM (inactive) | > 100 µM (inactive) |  | > 100 µM (inactive) |  | > 100 µM (inactive) | > 100 µM (inactive) | > 100 µM (inactive) | > 100 µM (inactive) | > 100 µM (inactive) | > 100 µM (inactive) | > 100 µM (inactive) | > 100 µM (inactive) |  | > 100 µM (inactive) | 18.4 µM (inactive) |  |  | > 100 µM (inactive)
5 | NC(C/C=C/P(=O)(O)O)C(=O)O (stereo not drawn) | > 100 µM (inactive) | > 100 µM (inactive) | > 100 µM (inactive) |  | > 100 µM (inactive) | > 100 µM (inactive) | > 100 µM (inactive) | > 100 µM (inactive) | > 100 µM (inactive) | > 100 µM (inactive) | > 100 µM (inactive) | > 100 µM (inactive) | > 100 µM (inactive) | > 100 µM (inactive) | 2 µM (inactive) | > 100 µM (inactive) | > 100 µM (inactive) | > 100 µM (inactive) | > 100 µM (inactive) | > 100 µM (inactive)
6 | COc1ccc(-c2cc(O)c3ccc(C)nc3n2)cc1 | > 100 µM (inactive) |  | > 100 µM (inactive) | > 100 µM (inactive) | > 100 µM (inactive) |  |  | 49.4 µM (inactive) | 81.5 µM (inactive) |  |  | > 100 µM (inactive) | > 100 µM (inactive) | > 100 µM (inactive) | > 100 µM (inactive) | > 100 µM (inactive) | 97.7 µM (inactive) | > 100 µM (inactive) | > 100 µM (inactive) | > 100 µM (inactive)
7 | Nc1nc(O)c2ncn(C3C=CC(CO)O3)c2n1 (stereo not drawn) | > 100 µM (inactive) |  |  | > 100 µM (inactive) | > 100 µM (inactive) | > 100 µM (inactive) | > 100 µM (inactive) | > 100 µM (inactive) | > 100 µM (inactive) | > 100 µM (inactive) | > 100 µM (inactive) | > 100 µM (inactive) | 11.1 µM (inactive) | > 100 µM (inactive) | > 100 µM (inactive) | > 100 µM (inactive) | > 100 µM (inactive) | 75.2 µM (inactive) | > 100 µM (inactive) | > 100 µM (inactive)
8 | CC(C)(C)OC(=O)NC(Cc1ccccc1)C(=O)N1CCCC1C(N)=O (stereo not drawn) (Boc-Phe-Pro-NH2; configuration not given here) | > 100 µM (inactive) | > 100 µM (inactive) | > 100 µM (inactive) |  |  | > 100 µM (inactive) | > 100 µM (inactive) | > 100 µM (inactive) | > 100 µM (inactive) | > 100 µM (inactive) |  |  | > 100 µM (inactive) | > 100 µM (inactive) | 9.29 µM (inactive) | > 100 µM (inactive) | 1.74 µM (inactive) | > 100 µM (inactive) |  | 
